# Results taken from patent US6222035A, “[1,2,4] triazolo [1,5-C] pyrimidine derivatives” (Kyowa Hakko Kogyo Co., Ltd., priority 1997, dated 2001).
# Where a name gives a salt, the structure may show the parent alone.
# Columns and labels:
# [1] = system: CGS 21680-induced catalepsy in mice; assay: Activity on CGS 21680-induced Catalepsy; type: in vivo, mouse (male ddY); details: 10 mg/kg oral; for Total score (catalepsy): 10 animals, maximum 50 points, control 48; for Number of Animals showing remission: catalepsy score 4 points or less in 10 cases; for inhibition in vivo at 10 mg/kg: Mus musculus, CGS 21680-induced catalepsy, read-out: Remission ratio (%)
# Procedure, shortened: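 Male ddY mice (5 weeks, 10 per group) received CGS 21680 10 μg/20 μl intracerebroventricularly; test compounds given orally at 10 mg/kg in 0.3% Tween 80 suspension. Catalepsy scored 1 h after dosing on a 4.5 cm bar; total group score (maximum 50) compared with control; ≤4 per animal counted as remission.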
# [2] = biological target: T1, adenosine A2A receptor (Rattus norvegicus, UniProt P30543); assay: Adenosine receptor binding activity (adenosine A2A receptor binding test), 3H-CGS 21680 binding; details: 2 h; 10^-7 M; read-out: A2A receptor inhibition ratio (%)
# T1 construct: from tissue; host or cells: rat corpus striatum, washed membrane suspension
# T1 sequence (P30543 whole entry): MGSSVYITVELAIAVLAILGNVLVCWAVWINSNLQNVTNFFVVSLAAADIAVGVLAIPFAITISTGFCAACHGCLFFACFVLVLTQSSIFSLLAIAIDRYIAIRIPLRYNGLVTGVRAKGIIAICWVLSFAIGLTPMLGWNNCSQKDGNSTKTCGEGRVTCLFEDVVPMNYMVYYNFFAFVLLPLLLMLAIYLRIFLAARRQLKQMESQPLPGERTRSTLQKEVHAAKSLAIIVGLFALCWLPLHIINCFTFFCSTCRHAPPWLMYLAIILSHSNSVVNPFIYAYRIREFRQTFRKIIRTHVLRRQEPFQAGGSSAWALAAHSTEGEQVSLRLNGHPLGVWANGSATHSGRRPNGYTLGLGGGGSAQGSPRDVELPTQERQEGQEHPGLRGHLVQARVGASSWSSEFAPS
# Procedure: Adenosine receptor binding activity (adenosine A2A receptor binding test) This test was carried out by slightly modifying the method of Bruns et al. [Molecular Pharmacology, 29: 331 (1986)].
# Corpus striatum of a rat was suspended in an ice-cooled 50 mM tris(hydroxymethyl)aminomethane hydrochloride (hereinafter referred to as "Tris-HCl") buffer (pH 7.7) using Polytron Homogenizer (manufactured by Kinematica Co.). The suspension was centrifuged (50,000×g, 10 minutes), and the obtained precipitate was re-suspended in the same amount of 50 mM Tris-HCl buffer. The suspension was centrifuged under the same conditions, and the final precipitate was suspended in 50 mM Tris-HCl [containing 10 mM magnesium chloride and 0.02 unit/mg tissue of adenosine deaminase (manufactured by Sigma Co.)] to give a tissue concentration of 5 mg (wet weight)/ml.
# To 1 ml of the tissue suspension thus prepared were added 50 μl of tritium-labeled CGS 21680 {^3 H-2-[p-(2-carboxyethyl)phenethylamino]-5'-N-ethylcarboxamido)adenosine: 40 Ci/mmol; manufactured by New England Nuclear Co.[The Journal of Pharmacology and Experimental Therapeutics, 251: 888 (1989)]} (final concentration:4.0 nM) and 50 μl of a test compound. The resulting mixture was allowed to stand for 120 minutes at 25° C., and then rapidly filtered by suction through a glass fiber filter (GF/C, manufactured by Whatman Co.) The filter was immediately washed three times with […] of an ice-cooled 50 mM Tris-HCl buffer, and transferred to a vial, a scintillator (EX-H , manufactured by Wako Pure Chemical Industries, Ltd.) was added thereto, and the radioactivity on the filter was determined with a liquid scintillation counter (manufactured by Packard Instrument Co.) […]
# The inhibition ratio of the test compound against the A2A receptor binding (^3 H-CGS 21680 binding) was calculated by the following equation:
# Inhibition ratio (%)={1-(Amount of the binding in the presence of the test compound-Amount of the nonspecific binding)/(Amount of the total binding-Amount of the nonspecific binding)}×100
# (Note) Amount of the total binding means the amount of radioactivity of ^3 H-CGS 21680 bound in the absence of the test compound. Amount of the nonspecific binding means the amount of radioactivity of ^3 H-CGS 21680 bound in the presence of 100 μM cyclopentyladenosine (CPA, manufactured by Sigma Co.) Amount of the binding in the presence of the test compound means the amount of radioactivity of ^3 H-CGS 21680 bound in the presence of the test compound at various levels of concentrations.
inhibition at 0.1 µM [2],Compound,Total score (catalepsy) [1],Number of Animals showing remission [1],inhibition in vivo at 10 mg/kg [1]
53%,"Nc1nc(N2CCN(CCOCCO)CC2)cc2nc(-c3ccco3)nn12 [Compound 103, 5-Amino-2-(2-furyl)-7-(4-(2-(2-hydroxyethoxy)ethyl)piperazinyl)[1,2,4]triazolo[1,5-c]pyrimidine]",2,10,94%
22%,"C[C@@H]1CN(c2cc3nc(-c4ccco4)nn3c(N)n2)C[C@H](C)N1C [Compound 115, 5-Amino-7-(cis-3,5-dimethyl-4-methylpiperazinyl)-2-(2-furyl)[1,2,4]triazolo[1,5-c]pyrimidine hydrochloride]",5,10,88%
38%,"C[C@@H]1CN(c2cc3nc(-c4ccco4)nn3c(N)n2)C[C@H](C)N1Cc1ccccc1 [Compound 116, 5-Amino-7-(4-benzyl-cis-3,5-dimethylpiperazinyl)-2-(2-furyl)[1,2,4]triazolo[1,5-c]pyrimidine]",5,10,90%
29%,"C[C@@H]1CN(c2cc3nc(-c4ccco4)nn3c(N)n2)C[C@H](C)N1CCO [Compound 120, 5-Amino-7-(cis-3,5-dimethyl-4-(2-hydroxyethyl)piperazinyl)-2-(2-furyl)[1,2,4]triazolo[1,5-c]pyrimidine]",3,10,94%
42%,"CCCN1CCN(c2cc3nc(-c4ccco4)nn3c(N)n2)CC1 [Compound 123, 5-Amino-2-(2-furyl)-7-(4-propylpiperazinyl)[1,2,4]triazolo[1,5-c]pyrimidine]",1,10,96%
59%,"C=CCN1CCN(c2cc3nc(-c4ccco4)nn3c(N)n2)CC1 [Compound 124, 5-Amino-7-(4-allylpiperazinyl)-2-(2-furyl)[1,2,4]triazolo[1,5-c]pyrimidine]",12,9,76%
60%,"Nc1nc(N2CCN(CCF)CC2)cc2nc(-c3ccco3)nn12 [Compound 126, 5-Amino-7-(4-(2-fluoroethyl)piperazinyl)-2-(2-furyl)[1,2,4]triazolo[1,5-c]pyrimidine]",2,9,96%

# More lines, now with the values behind:
Compound,inhibition at 0.1 µM [2],Total score (catalepsy) [1],Number of Animals showing remission [1],inhibition in vivo at 10 mg/kg [1]
"Nc1nc(N2CCN(CCOCc3ccccc3)CC2)cc2nc(-c3ccco3)nn12 [Compound 97, 5-Amino-7-(4-(2-benzyloxyethyl)piperazinyl)-2-(2-furyl)[1,2,4]triazolo[1,5-c]pyrimidine hydrochloride]",79%,4,10,90%
"COCCCN1CCN(c2cc3nc(-c4ccco4)nn3c(N)n2)CC1 [Compound 99, 5-Amino-2(2-furyl)-7-(4-(3-methoxypropyl)piperazinyl)[1,2,4]triazolo[1,5-c]pyrimidine]",59%,5,10,90%
"CCOCCCN1CCN(c2cc3nc(-c4ccco4)nn3c(N)n2)CC1 [Compound 100, 5-Amino-7-(4-(3-ethoxypropyl)piperazinyl)-2-(2-furyl)[1,2,4]triazolo[1,5-c]pyrimidine]",54%,4,10,90%
"CC(C)OCCCN1CCN(c2cc3nc(-c4ccco4)nn3c(N)n2)CC1 [Compound 101, 5-Amino-2-(2-furyl)-7-(4-(3-isopropoxypropyl)piperazinyl)[1,2,4]triazolo[1,5-c]pyrimidine]",46%,8,10,82%
